# Values of other authors in patent publication US5840893A, “Compounds for treating infectious diseases” (priority 1996, dated 1998).
# Test system: importation of HIV-1 into the nucleus
# Details: 0.1M peptide in medium; aphidicolin-arrested CD4+ MT4 cells; cited from earlier work
substance,measurement,value
SV40 T-antigen NLS: the peptide having the sequence of the SV40 T-antigen NLS (PKKKRKV),block of HIV-1 importation into the nucleus,blocked the importation of HIV-1 into the nucleus
